Laboratory results as given in patent publication US20230085307A1, “PYRIDAZINONE COMPOUND AND HERBICIDE” (NISSAN CHEMICAL CORPORATION, priority 2019, published 2023).

Legend:
Japanese bulrush [1] = assay: Test Example 1: herbicidal activity, application before weed generation under submerged conditions (Table 16, symbol B); assay type: in vivo, Japanese bulrush (Schoenoplectus juncoides)
How it was run: (§1)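 Alluvial soil was flooded to 4 cm depth, weed seeds were sown mixed and 2.5-leaf rice seedlings were transplanted. On sowing day, the compound's emulsion, diluted in water to a set dose, was applied to the water surface. Plants grew at 25–30 °C and were scored 0–5 after three weeks.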

persian speedwell = assay: Test Example 4: herbicidal effect by soil treatment (Table 19, symbol R); assay type: in vivo, Persian speedwell (Veronica persica)
How it was run: (§2)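 Step 1: sow seeds in sterilized diluvial soil, cover ~1.5 cm. Step 2: spray diluted emulsion onto soil surface at predetermined rate. Step 3: greenhouse, 25–30° C, three weeks. Step 4: grade effect on each plant by earlier criteria.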

windgrass [2] = assay: Test Example 5: herbicidal effect by foliage application, plastic box (Table 20, symbol L); assay type: in vivo, windgrass (Apera spica-venti); details: foliage application, 3 weeks after application
How it was run: (§3)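 Foliar spray test: emulsion formulation diluted in water to a set application rate, sprayed onto 14-day-old plants raised in diluvial soil at 25° C to 30° C under glass. Both herbicidal effect and crop effect rated visually three weeks later.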

Italian ryegrass = assay: Test Example 4: herbicidal effect by soil treatment (Table 19, symbol K); assay type: in vivo, Italian ryegrass (Lolium multiflorum)
How it was run: as §2

windgrass [3] = assay: Test Example 4: herbicidal effect by soil treatment (Table 19, symbol L); assay type: in vivo, windgrass (Apera spica-venti)
How it was run: as §2

southern crabgrass = assay: Test Example 5: herbicidal effect by foliage application, plastic box (Table 20, symbol F); assay type: in vivo, southern crabgrass (Digitaria ciliaris); details: foliage application, 3 weeks after application
How it was run: as §3

Japanese bulrush [4] = assay: Test Example 2: herbicidal activity, application during weed generation under submerged conditions (Table 17, symbol B); assay type: in vivo, Japanese bulrush (Schoenoplectus juncoides); details: application during weed generation, submerged conditions
How it was run: (§4)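 Mixed weed seedlings in alluvial soil under a 4 cm water layer, greenhouse-grown at 25–30° C. Compound given as a diluted emulsion into the floodwater at the 1–2 leaf stage; response graded after three weeks.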

oval-leafed pondweed [5] = assay: Test Example 1: herbicidal activity, application before weed generation under submerged conditions (Table 16, symbol C); assay type: in vivo, oval-leafed pondweed (Monochoria vaginalis)
How it was run: as §1

wild oat = assay: Test Example 4: herbicidal effect by soil treatment (Table 19, symbol I); assay type: in vivo, wild oat (Avena fatua)
How it was run: as §2

oval-leafed pondweed [6] = assay: Test Example 2: herbicidal activity, application during weed generation under submerged conditions (Table 17, symbol C); assay type: in vivo, oval-leafed pondweed (Monochoria vaginalis); details: application during weed generation, submerged conditions
How it was run: as §4

lambsquarters = assay: Test Example 5: herbicidal effect by foliage application, plastic box (Table 20, symbol O); assay type: in vivo, lambsquarters (Chenopodium album); details: foliage application, 3 weeks after application
How it was run: as §3

green foxtail [7] = assay: Test Example 5: herbicidal effect by foliage application, plastic box (Table 20, symbol G); assay type: in vivo, green foxtail (Setaria viridis); details: foliage application, 3 weeks after application
How it was run: as §3

rice flat sedge = assay: Test Example 3: herbicidal effect by foliage application, Wagner pot (Table 18, symbol E); assay type: in vivo, rice flat sedge (Cyperus iria)
How it was run: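 Plants were sown in alluvial soil held under 0.1–0.5 cm standing water and grown 14 days in a greenhouse at 25–30 °C. An emulsifiable formulation, water-diluted to the set dose, was then sprayed onto the foliage, and effects were scored three weeks later using previously defined criteria.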

green foxtail [8] = assay: Test Example 4: herbicidal effect by soil treatment (Table 19, symbol G); assay type: in vivo, green foxtail (Setaria viridis)
How it was run: as §2

velvetleaf = assay: Test Example 4: herbicidal effect by soil treatment (Table 19, symbol M); assay type: in vivo, velvetleaf (Abutilon theophrasti)
How it was run: as §2

SMILES | Herbicidal effect on B: Japanese bulrush (grade 0-5) (Japanese bulrush [1]; 320 g/ha applied herbicide) | R: persian speedwell, herbicidal effect rating (persian speedwell; AAH 320 g/ha) | effect on windgrass (L) (windgrass [2]; 320 g/ha) | K: Italian ryegrass, herbicidal effect rating (Italian ryegrass; AAH 320 g/ha) | L: windgrass, herbicidal effect rating (windgrass [3]; AAH 320 g/ha) | effect on southern crabgrass (F) (southern crabgrass; 320 g/ha) | herbicidal effect rating, B: Japanese bulrush (Japanese bulrush [4]; AAH 320 g/ha) | Herbicidal effect on C: oval-leafed pondweed (grade 0-5) (oval-leafed pondweed [5]; 320 g/ha applied herbicide) | I: wild oat, herbicidal effect rating (wild oat; AAH 320 g/ha) | herbicidal effect rating, C: oval-leafed pondweed (oval-leafed pondweed [6]; AAH 320 g/ha) | effect on lambsquarters (O) (lambsquarters; 320 g/ha) | effect on green foxtail (G) (green foxtail [7]; 320 g/ha) | herbicidal effect on E (rice flat sedge), rating 0-5 (rice flat sedge; 320 g/ha) | G: green foxtail, herbicidal effect rating (green foxtail [8]; AAH 320 g/ha) | M: velvetleaf, herbicidal effect rating (velvetleaf; AAH 320 g/ha) | also measured
Cc1nn(C)c(=O)c(-c2c(-c3ccc(OCCC(F)(F)F)cc3)sc3ccccc23)c1O [1-206] | 5 (Herbicidal rate of 90% or more (almost completely withered)) | 5 (Herbicidal rate of 90% or more (almost completely withered)) | 5 (Herbicidal rate of 90% or more (almost completely withered)) | 5 (Herbicidal rate of 90% or more (almost completely withered)) | 3 (Herbicidal rate of 40% or more and less than 70%) | 5 (Herbicidal rate of 90% or more (almost completely withered)) | 3 (Herbicidal rate of 40% or more and less than 70%) | 5 (Herbicidal rate of 90% or more (almost completely withered)) | 0 (Herbicidal rate of 5% or less (almost no effect)) | 5 (Herbicidal rate of 90% or more (almost completely withered)) | 5 (Herbicidal rate of 90% or more (almost completely withered)) | 5 (Herbicidal rate of 90% or more (almost completely withered)) | 5 (Herbicidal rate of 90% or more (almost completely withered)) | 5 (Herbicidal rate of 90% or more (almost completely withered)) | 3 (Herbicidal rate of 40% or more and less than 70%) | 
C=C(C)COc1ccc(-c2sc3ccccc3c2-c2c(O)c(C)nn(C)c2=O)cc1 [1-208] | 5 (Herbicidal rate of 90% or more (almost completely withered)) | 5 (Herbicidal rate of 90% or more (almost completely withered)) | 4 (Herbicidal rate of 70% or more and less than 90%) | 4 (Herbicidal rate of 70% or more and less than 90%) | 0 (Herbicidal rate of 5% or less (almost no effect)) | 5 (Herbicidal rate of 90% or more (almost completely withered)) | 3 (Herbicidal rate of 40% or more and less than 70%) | 5 (Herbicidal rate of 90% or more (almost completely withered)) | 0 (Herbicidal rate of 5% or less (almost no effect)) | 3 (Herbicidal rate of 40% or more and less than 70%) | 5 (Herbicidal rate of 90% or more (almost completely withered)) | 5 (Herbicidal rate of 90% or more (almost completely withered)) | 4 (Herbicidal rate of 70% or more and less than 90%) | 0 (Herbicidal rate of 5% or less (almost no effect)) | 0 (Herbicidal rate of 5% or less (almost no effect)) | 
C=C(Br)COc1ccc(-c2sc3ccccc3c2-c2c(O)c(C)nn(C)c2=O)cc1 [1-215] | 4 (Herbicidal rate of 70% or more and less than 90%) | 3 (Herbicidal rate of 40% or more and less than 70%) | 5 (Herbicidal rate of 90% or more (almost completely withered)) | 0 (Herbicidal rate of 5% or less (almost no effect)) | 0 (Herbicidal rate of 5% or less (almost no effect)) | 2 (Herbicidal rate of 20% or more and less than 40%) | 3 (Herbicidal rate of 40% or more and less than 70%) | 4 (Herbicidal rate of 70% or more and less than 90%) | 0 (Herbicidal rate of 5% or less (almost no effect)) | 3 (Herbicidal rate of 40% or more and less than 70%) | 5 (Herbicidal rate of 90% or more (almost completely withered)) | 5 (Herbicidal rate of 90% or more (almost completely withered)) | 5 (Herbicidal rate of 90% or more (almost completely withered)) | 0 (Herbicidal rate of 5% or less (almost no effect)) | 0 (Herbicidal rate of 5% or less (almost no effect)) | 
Cc1nn(C)c(=O)c(-c2c(-c3ccc(OCCC4OCCO4)cc3)sc3ccccc23)c1O [1-223] |  |  |  |  |  |  |  |  |  |  |  |  |  |  |  | Herbicidal effect on B: Japanese bulrush (grade 0-5) (Japanese bulrush [1]; 246 g/ha applied herbicide): 4 (Herbicidal rate of 70% or more and less than 90%); R: persian speedwell, herbicidal effect rating (persian speedwell; AAH 246 g/ha): 0 (Herbicidal rate of 5% or less (almost no effect)); effect on windgrass (L) (windgrass [2]; 246 g/ha): 4 (Herbicidal rate of 70% or more and less than 90%); K: Italian ryegrass, herbicidal effect rating (Italian ryegrass; AAH 246 g/ha): 0 (Herbicidal rate of 5% or less (almost no effect)); L: windgrass, herbicidal effect rating (windgrass [3]; AAH 246 g/ha): 0 (Herbicidal rate of 5% or less (almost no effect)); effect on southern crabgrass (F) (southern crabgrass; 246 g/ha): 4 (Herbicidal rate of 70% or more and less than 90%); herbicidal effect rating, B: Japanese bulrush (Japanese bulrush [4]; AAH 246 g/ha): 3 (Herbicidal rate of 40% or more and less than 70%); Herbicidal effect on C: oval-leafed pondweed (grade 0-5) (oval-leafed pondweed [5]; 246 g/ha applied herbicide): 4 (Herbicidal rate of 70% or more and less than 90%); I: wild oat, herbicidal effect rating (wild oat; AAH 246 g/ha): 0 (Herbicidal rate of 5% or less (almost no effect)); herbicidal effect rating, C: oval-leafed pondweed (oval-leafed pondweed [6]; AAH 246 g/ha): 3 (Herbicidal rate of 40% or more and less than 70%); effect on lambsquarters (O) (lambsquarters; 246 g/ha): 5 (Herbicidal rate of 90% or more (almost completely withered)); effect on green foxtail (G) (green foxtail [7]; 246 g/ha): 5 (Herbicidal rate of 90% or more (almost completely withered)); herbicidal effect on E (rice flat sedge), rating 0-5 (rice flat sedge; 246 g/ha): 4 (Herbicidal rate of 70% or more and less than 90%); G: green foxtail, herbicidal effect rating (green foxtail [8]; AAH 246 g/ha): 2 (Herbicidal rate of 20% or more and less than 40%); M: velvetleaf, herbicidal effect rating (velvetleaf; AAH 246 g/ha): 0 (Herbicidal rate of 5% or less (almost no effect))
CSCCSCc1ccc(-c2sc3ccccc3c2-c2c(O)c(C)nn(C)c2=O)cc1 [1-253] | 3 (Herbicidal rate of 40% or more and less than 70%) | 5 (Herbicidal rate of 90% or more (almost completely withered)) | 0 (Herbicidal rate of 5% or less (almost no effect)) | 0 (Herbicidal rate of 5% or less (almost no effect)) | 0 (Herbicidal rate of 5% or less (almost no effect)) | 1 (Herbicidal rate of 5% or more and less than 20%) | 0 (Herbicidal rate of 5% or less (almost no effect)) | 0 (Herbicidal rate of 5% or less (almost no effect)) | 0 (Herbicidal rate of 5% or less (almost no effect)) | 0 (Herbicidal rate of 5% or less (almost no effect)) | 5 (Herbicidal rate of 90% or more (almost completely withered)) | 3 (Herbicidal rate of 40% or more and less than 70%) | 3 (Herbicidal rate of 40% or more and less than 70%) | 0 (Herbicidal rate of 5% or less (almost no effect)) | 0 (Herbicidal rate of 5% or less (almost no effect)) | 
